In brackets after ≈: the same amount, converted by molar mass.
Columns and labels:
TNFα release = experiment: LPS-induced TNFα release in PMA-differentiated U937 cells (ELISA); type: cell-based, human; details: at 100 μM
Experimental: Effects of macrolides on lipopolysaccharide (LPS)-induced TNFα release in PMA-differentiated U937 cells. […] LPS-induced TNFα release was evaluated by ELISA. Values represent means of three experiments±SEM. ^##p<0.01 (vs. non-treatment control), *p<0.05, **p<0.01 (vs. treatment with LPS only).
The human monocytic cell line U937 was obtained from the American Type Culture Collection (ATCC, Rockville, Md.). PBMCs from COPD patients were obtained from Brompton hospital and separated by AccuSPIN (Sigma-Aldrich). Cells were cultured in complete growth medium (RPMI 1640) (Sigma-Aldrich) supplemented with 10% fetal bovine serum (FBS) and 1% L-glutamine at 37° C. in a humidified atmosphere with 5% CO2. U937 cells were differentiated into adherent macrophage-like morphology by exposure to PMA (50 ng/mL) for 48 hrs in complete growth medium. Cell viability was assessed microscopically by trypan blue staining. Cell toxicity was determined by MTT assay as needed. This study was approved by the ethics committee of the Royal Brompton Hospitals, and all subjects gave written informed consent.
TNFα and IL-8 concentrations in the supernatant of cell cultures were determined by sandwich ELISA according to the manufacturer's instructions (R&D Systems Europe, Abingdon, UK).
The results were expressed as the mean±SEM. Comparisons of data in two groups were performed using the Student's t test or the Wilcoxon signed rank test. Multiple comparisons were made by one-way ANOVA with post hoc test (Dunnett's) as appropriate. The difference was considered significant at p<0.05. IC50 values (50% inhibitory concentration) for macrolides for production of cytokines or MMP9 were calculated using Prism 4.0 (GraphPad Software Inc., San Diego, Calif.).

P. aeruginosa (PA) = experiment: MIC by microdilution, 36 clinical and laboratory strains with known efflux phenotype; type: cell-based
Experimental: (§1) MICs of 36 clinical and laboratory strains of PA with known efflux phenotype are measured by microdilution in cation-adjusted Muller-Hinton broth (CA-MHB) or in RPMI medium (commonly used in eukaryotic cell culture). Phe-Arg-β-naphthylamide (PaβN, 50 mg/L) and EGTA 5 mM are used to inhibit efflux pumps and alter OM integrity, respectively. P. aeruginosa strain ATCC PAO1 is used as reference. PA12 is a clinical strain overexpressing the 4 main efflux systems (MexAB, MexCD, MexEF, MexXY), PA403 is a laboratory strain deleted in the genes coding for the 4 efflux systems. A series of reference strains or of clinical isolates for which the expression of genes coding for efflux pumps is known is also used for MICs determinations. MICs are measured by microdilution in MH broth or in RPMI medium (used for eukaryotic cells culture) supplemented with 10% of fetal calf serum, or in MH broth supplemented by increasing amounts of serum. EGTA (5 mM) was used as a chelating agent (disrupting outer membrane integrity) and PaβN (50 mg/L) as an unspecific efflux inhibitor.

P. aeruginosa PA12 = experiment: MIC by microdilution with PaβN or EGTA, clinical isolate overexpressing efflux pumps; type: cell-based; details: Pseudomonas aeruginosa
Experimental: as §1

With `CC[C@H]1OC(=O)[C@H](C)C(=O)[C@H](C)[C@@H](O[C@@H]2O[C@H](C)C[C@H](N(C)C)[C@H]2O)[C@](C)(OC)C[C@@H](C)C(=O)[C@H](C)[C@H]2N(CCCCn3cnc(-c4cccnc4)c3)C(=O)O[C@]12C` [TEL, telithromycin] the IC50 (TNFα release; Homo sapiens, U-937, read-out: IC50, LPS-induced TNFα release: NE at 100 μM, U937 cells) was over 100 µM, the “effect on TNFα production” value (TNFα release) was “did not inhibit” and the MIC (P. aeruginosa (PA); strain 1, efflux AB+, MHB) was 128 µg/mL (≈ 158 µM). The MIC (P. aeruginosa (PA); strain 1, efflux AB+, RPMI) was 4 µg/mL (≈ 4.93 µM), the MIC (P. aeruginosa (PA); strain 2, efflux CD+, MHB) was 256 µg/mL (≈ 315 µM) and the MIC (P. aeruginosa (PA); strain 2, efflux CD+, RPMI) was 16 µg/mL (≈ 19.7 µM). It also gave an MIC (P. aeruginosa (PA); strain 3, efflux EF+, MHB) of 64 µg/mL (≈ 78.8 µM), an MIC (P. aeruginosa (PA); strain 3, efflux EF+, RPMI) of 0.25 µg/mL (≈ 0.308 µM) and an MIC (P. aeruginosa (PA); strain 4, efflux XY+, MHB) of 128 µg/mL (≈ 158 µM). For the same compound, the MIC (P. aeruginosa (PA); strain 4, efflux XY+, RPMI) was 4 µg/mL (≈ 4.93 µM), the MIC (P. aeruginosa (PA); strain 11, efflux AB + CD+, MHB) was 64 µg/mL and the MIC (P. aeruginosa (PA); strain 11, efflux AB + CD+, RPMI) was 1 µg/mL. The MIC (P. aeruginosa (PA); strain 12, efflux AB + CD + EF + XY+, MHB) was 128 µg/mL, the MIC (P. aeruginosa (PA); strain 12, efflux AB + CD + EF + XY+, RPMI) was 4 µg/mL and the MIC (P. aeruginosa (PA); strain 16, efflux AB + XY+, MHB) was 128 µg/mL. For the same compound, the MIC (P. aeruginosa (PA); strain 16, efflux AB + XY+, RPMI) was 4 µg/mL, the MIC (P. aeruginosa (PA); strain 21, efflux AB+, MHB) was 64 µg/mL (≈ 78.8 µM) and the MIC (P. aeruginosa (PA); strain 21, efflux AB+, RPMI) was 2 µg/mL (≈ 2.46 µM). For the same compound, the MIC (P. aeruginosa (PA); strain 22, efflux XY+, MHB) was 128 µg/mL (≈ 158 µM), the MIC (P. aeruginosa (PA); strain 22, efflux XY+, RPMI) was 2 µg/mL (≈ 2.46 µM) and the MIC (P. aeruginosa (PA); strain 40, efflux EF+, MHB) was 64 µg/mL (≈ 78.8 µM). For the same compound, the MIC (P. aeruginosa (PA); strain 40, efflux EF+, RPMI) was 2 µg/mL (≈ 2.46 µM), the MIC (P. aeruginosa (PA); strain 41, efflux CD+, MHB) was 256 µg/mL (≈ 315 µM) and the MIC (P. aeruginosa (PA); strain 41, efflux CD+, RPMI) was 4 µg/mL (≈ 4.93 µM). The MIC (P. aeruginosa (PA); strain 48, efflux CD + EF + XY+, MHB) was 128 µg/mL, the MIC (P. aeruginosa (PA); strain 48, efflux CD + EF + XY+, RPMI) was 8 µg/mL and the MIC (P. aeruginosa (PA); strain 49, efflux CD + EF + XY+, MHB) was 128 µg/mL. The MIC (P. aeruginosa (PA); strain 49, efflux CD + EF + XY+, RPMI) was 4 µg/mL, the MIC (P. aeruginosa (PA); strain 63, efflux AB + EF + XY+, MHB) was 128 µg/mL and the MIC (P. aeruginosa (PA); strain 63, efflux AB + EF + XY+, RPMI) was 4 µg/mL. For the same compound, the MIC (P. aeruginosa (PA); strain 68, efflux AB + XY+, MHB) was 128 µg/mL, the MIC (P. aeruginosa (PA); strain 68, efflux AB + XY+, RPMI) was 4 µg/mL and the MIC (P. aeruginosa (PA); strain 133, efflux EF + XY+, MHB) was 128 µg/mL. It also gave an MIC (P. aeruginosa (PA); strain 133, efflux EF + XY+, RPMI) of 4 µg/mL, an MIC (P. aeruginosa (PA); strain 156, efflux EF + XY+, MHB) of 128 µg/mL and an MIC (P. aeruginosa (PA); strain 156, efflux EF + XY+, RPMI) of 2 µg/mL. It also gave an MIC (P. aeruginosa (PA); strain 168B, efflux CD + XY+, MHB) of 256 µg/mL, an MIC (P. aeruginosa (PA); strain 168B, efflux CD + XY+, RPMI) of 4 µg/mL and an MIC (P. aeruginosa (PA); strain 207, efflux AB + EF + XY+, MHB) of 128 µg/mL. It also gave an MIC (P. aeruginosa (PA); strain 207, efflux AB + EF + XY+, RPMI) of 4 µg/mL, an MIC (P. aeruginosa (PA); strain 266B, efflux AB + CD+, MHB) of 256 µg/mL and an MIC (P. aeruginosa (PA); strain 266B, efflux AB + CD+, RPMI) of 4 µg/mL. The MIC (P. aeruginosa (PA); strain 333A, efflux AB + EF+, MHB) was 64 µg/mL, the MIC (P. aeruginosa (PA); strain 333A, efflux AB + EF+, RPMI) was 2 µg/mL and the MIC (P. aeruginosa (PA); strain 335, efflux AB + EF+, MHB) was 128 µg/mL. For the same compound, the MIC (P. aeruginosa (PA); strain 335, efflux AB + EF+, RPMI) was 4 µg/mL, the MIC (P. aeruginosa (PA); strain 391, efflux EF−, MHB) was 64 µg/mL (≈ 78.8 µM) and the MIC (P. aeruginosa (PA); strain 391, efflux EF−, RPMI) was 2 µg/mL (≈ 2.46 µM). It also gave an MIC (P. aeruginosa (PA); strain 392, efflux CD−, MHB) of 32 µg/mL (≈ 39.4 µM), an MIC (P. aeruginosa (PA); strain 392, efflux CD−, RPMI) of 0.5 µg/mL (≈ 0.616 µM) and an MIC (P. aeruginosa (PA); strain 394, efflux XY−, MHB) of 64 µg/mL (≈ 78.8 µM). For the same compound, the MIC (P. aeruginosa (PA); strain 394, efflux XY−, RPMI) was 1 µg/mL (≈ 1.23 µM), the MIC (P. aeruginosa (PA); strain 395, efflux HI−, MHB) was 32 µg/mL (≈ 39.4 µM) and the MIC (P. aeruginosa (PA); strain 395, efflux HI−, RPMI) was 2 µg/mL (≈ 2.46 µM). It also gave an MIC (P. aeruginosa (PA); strain 396, ompH−, MHB) of 16 µg/mL (≈ 19.7 µM), an MIC (P. aeruginosa (PA); strain 396, ompH−, RPMI) of 0.25 µg/mL (≈ 0.308 µM) and an MIC (P. aeruginosa (PA); strain 397, efflux AB−, MHB) of 8 µg/mL (≈ 9.85 µM). For the same compound, the MIC (P. aeruginosa (PA); strain 397, efflux AB−, RPMI) was 0.03 µg/mL (≈ 0.0369 µM), the MIC (P. aeruginosa (PA); strain 398, efflux CD−, MHB) was 8 µg/mL (≈ 9.85 µM) and the MIC (P. aeruginosa (PA); strain 398, efflux CD−, RPMI) was 0.25 µg/mL (≈ 0.308 µM). The MIC (P. aeruginosa (PA); strain 399, efflux AB − EF−, MHB) was 4 µg/mL (≈ 4.93 µM), the MIC (P. aeruginosa (PA); strain 399, efflux AB − EF−, RPMI) was 0.25 µg/mL (≈ 0.308 µM) and the MIC (P. aeruginosa (PA); strain 400, efflux XY−, MHB) was 8 µg/mL (≈ 9.85 µM). It also gave an MIC (P. aeruginosa (PA); strain 400, efflux XY−, RPMI) of 0.25 µg/mL (≈ 0.308 µM), an MIC (P. aeruginosa (PA); strain 401, ompH−, MHB) of 4 µg/mL (≈ 4.93 µM) and an MIC (P. aeruginosa (PA); strain 401, ompH−, RPMI) of 1 µg/mL (≈ 1.23 µM). For the same compound, the MIC (P. aeruginosa (PA); strain 403, efflux AB − CD − EF − XY−, MHB) was 4 µg/mL (≈ 4.93 µM), the MIC (P. aeruginosa (PA); strain 403, efflux AB − CD − EF − XY−, RPMI) was 0.5 µg/mL (≈ 0.616 µM) and the MIC (P. aeruginosa (PA); strain 405, efflux AB − CD − EF − XY−, MHB) was 8 µg/mL (≈ 9.85 µM). The MIC (P. aeruginosa (PA); strain 405, efflux AB − CD − EF − XY−, RPMI) was 0.25 µg/mL (≈ 0.308 µM), the MIC (P. aeruginosa (PA); strain 434, efflux AB + CD + XY+, MHB) was 128 µg/mL and the MIC (P. aeruginosa (PA); strain 434, efflux AB + CD + XY+, RPMI) was 4 µg/mL. For the same compound, the MIC (P. aeruginosa (PA); strain PAO1, REFERENCE, MHB) was 256 µg/mL (≈ 315 µM), the MIC (P. aeruginosa (PA); strain PAO1, REFERENCE, RPMI) was 2 µg/mL (≈ 2.46 µM) and the MIC (P. aeruginosa PA12; PA12, PA12, CA-MHB, EGTA 5 mM) was 32 µg/mL (≈ 39.4 µM). It also gave an MIC (P. aeruginosa PA12; PA12, PA12, CA-MHB, PaβN 50 mg/L) of 4 µg/mL (≈ 4.93 µM), an MIC (P. aeruginosa PA12; PA12, PA12, CA-MHB, control conditions (CT)) of 128 µg/mL (≈ 158 µM) and an MIC (P. aeruginosa PA12; PA12, PA12, RPMI, EGTA 5 mM) of 1 µg/mL (≈ 1.23 µM). For the same compound, the MIC (P. aeruginosa PA12; PA12, PA12, RPMI, PaβN 50 mg/L) was 4 µg/mL (≈ 4.93 µM) and the MIC (P. aeruginosa PA12; PA12, PA12, RPMI, control conditions (CT)) was 4 µg/mL (≈ 4.93 µM).

Source: patent US9861616B2, “Methods for treating respiratory diseases and formulations therefor” (priority 2013, dated 2018)
